Reference: article PMC8253220, “Molecular design, synthesis and in vitro biological evaluation of thienopyrimidine–hydroxamic acids as chimeric kinase HDAC inhibitors: a challenging approach to combat cancer” (Journal of Enzyme Inhibition and Medicinal Chemistry, 2021)
Several values for one entry are separate records, joined by “and”; a condition that tells them apart may be missing. Equal entries are not always repeated.

Columns and labels:
T-47D = test: NCI one-dose screen; assay type: cell-based, human; conditions: Breast T-47D, 10 µM single dose
Method: (§1) All of the synthesised structures were selected and submitted to NCI based on computer modelling techniques and the degree of diversity of structures for the evaluation of their antiproliferative activity. The 20 synthesised compounds were selected with their respective NCI codes [NCS D-820157- NCS D-820176] for the inhibition percent assay at an initial single dose of 10 μM on the full NCI 60 cell panel, where the mean graph of the percent growth for all compounds on the full NCI cell panel is evaluated, compared to the untreated control cells (Supplementary Material). In vitro cell line inhibition % of all synthesised compounds is represented in (Table 1 of Supplementary Material).
(§2) All of the synthesised compounds (20) were submitted to NCI and selected for in vitro anticancer assay against a panel of 60 cancer cell lines. The methodology of assay and calculations is as reported.

MOLT-4 = test: NCI one-dose screen; assay type: cell-based, human; conditions: Leukemia MOLT-4, 10 µM single dose
Method: as §1, §2

HOP-92 = test: NCI one-dose screen; assay type: cell-based, human; conditions: NSCLC HOP-92, 10 µM single dose
Method: as §1, §2

HS 578T = test: NCI one-dose screen; assay type: cell-based, human; conditions: Breast HS 578T, 10 µM single dose
Method: as §1, §2

SR = test: NCI one-dose screen; assay type: cell-based, human; conditions: Leukemia SR, 10 µM single dose
Method: as §1, §2

UACC-62 = test: NCI one-dose screen; assay type: cell-based, human; conditions: Melanoma UACC-62, 10 µM single dose
Method: as §1, §2

SF-295 = test: NCI one-dose screen; assay type: cell-based, human; conditions: CNS SF-295, 10 µM single dose
Method: as §1, §2

MALME-3M = test: NCI one-dose screen; assay type: cell-based, human; conditions: Melanoma MALME-3M, 10 µM single dose
Method: as §1, §2

SN12C = test: NCI one-dose screen; assay type: cell-based, human; conditions: Renal SN12C, 10 µM single dose
Method: as §1, §2

MDA-MB-435 = test: NCI one-dose screen; assay type: cell-based, human; conditions: Melanoma MDA-MB-435, 10 µM single dose
Method: as §1, §2

A549/ATCC = test: NCI one-dose screen; assay type: cell-based, human; conditions: NSCLC A549/ATCC, 10 µM single dose
Method: as §1, §2

OVCAR-8 = test: NCI one-dose screen; assay type: cell-based, human; conditions: Ovarian OVCAR-8, 10 µM single dose
Method: as §1, §2

Hela nuclear extracts = test: Hela nuclear extract HDAC inhibitor assay (BPS Bioscience); assay type: biochemical; conditions: 10 µM
How it was run: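 Percent activity was derived from fluorescence (ex 360, em 460 nm) relative to no-compound (100%) and no-extract (0%) wells. Reactions ran in duplicate for 60 min at 37 °C, combining diluted HeLa nuclear extract, HDAC Substrate 3 ([…]), BSA and compound in 1% DMSO, followed by developer.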

EGFR = EGFR (Homo sapiens, UniProt P00533); test: In vitro EGFR tyrosine kinase inhibitory assay (Z'-LYTE, SelectScreen); assay type: biochemical; conditions: for inhibition at 0.0001 µM: 0.1 nM compound; for inhibition at 0.0001 µM / inhibition at 0.001 µM / inhibition at 0.01 µM / inhibition at 0.1 µM / inhibition at 1 µM: 10 μM ATP, read-out: % Inhibition mean, EGFR (ErbB1); for inhibition at 0.001 µM: 1 nM compound; for inhibition at 0.01 µM: 10 nM compound; for inhibition at 0.1 µM: 100 nM compound; for inhibition at 1 µM: 1000 nM compound; for IC50: read-out: IC50 in enzyme assays EGFR
Method: The target compounds were evaluated for their in vitro inhibitory activities against EGFR, VEGFR-2, and HDAC6. The EGFR and VEGFR-2 inhibitory assays were performed at Thermo Fischer Scientific, Madison, WI, USA (SelectScreenServices@thermofisher.com). The HDAC inhibitory assays were performed at BPS Bioscience, San Diego, CA, USA (www.bpsbioscience.com). Initially, all of the synthesised target compounds were evaluated for their percent inhibitory activity against EGFR, VEGFR-2, and HDACs at 10 µM single dose concentration, in which their mean percent inhibition is summarised in (Figure 5, Tables 1 and [2]). Representative compounds were evaluated for their percent inhibitory activity against EGFR and VEGFR-2 at 6 different concentrations (0.1 nM, 1 nM, 10 nM, 100 nM, 1 µM, 10 µM) to subsequently calculate their IC50 values (Table 3). Additionally, all of the synthesised target compounds were submitted to the National Cancer Institute “NCI” Bethesda, Maryland, USA (www.dtp.nci.nih.gov), to evaluate theirs in vitro antiproliferative activities against NCI 60- cancer cell line panel.
In vitro enzyme inhibition determination for the synthesised compounds was carried out in Thermo Fischer Scientific, Madison, WI, USA (SelectScreenServices@thermofisher.com). The EGFR and VEGFR-2 tyrosine kinase % inhibitory activity at a single-dose concentration of 10 µM was performed initially then representative compounds were evaluated at single-dose concentrations of (0.1 nM, 1 nM, 10 nM, 100 nM, 1 µM) using ZYLTE technology. A fluorescence-based, coupled-enzyme format is employed in the biochemical assay and depends on the sensitivity of proteolytic cleavage to non-phosphorylated and phosphorylated peptides. Then IC50 values for selected compounds were determined by GraphPad Prism at Misr international university.

Sequence of EGFR (P00533 25-1210): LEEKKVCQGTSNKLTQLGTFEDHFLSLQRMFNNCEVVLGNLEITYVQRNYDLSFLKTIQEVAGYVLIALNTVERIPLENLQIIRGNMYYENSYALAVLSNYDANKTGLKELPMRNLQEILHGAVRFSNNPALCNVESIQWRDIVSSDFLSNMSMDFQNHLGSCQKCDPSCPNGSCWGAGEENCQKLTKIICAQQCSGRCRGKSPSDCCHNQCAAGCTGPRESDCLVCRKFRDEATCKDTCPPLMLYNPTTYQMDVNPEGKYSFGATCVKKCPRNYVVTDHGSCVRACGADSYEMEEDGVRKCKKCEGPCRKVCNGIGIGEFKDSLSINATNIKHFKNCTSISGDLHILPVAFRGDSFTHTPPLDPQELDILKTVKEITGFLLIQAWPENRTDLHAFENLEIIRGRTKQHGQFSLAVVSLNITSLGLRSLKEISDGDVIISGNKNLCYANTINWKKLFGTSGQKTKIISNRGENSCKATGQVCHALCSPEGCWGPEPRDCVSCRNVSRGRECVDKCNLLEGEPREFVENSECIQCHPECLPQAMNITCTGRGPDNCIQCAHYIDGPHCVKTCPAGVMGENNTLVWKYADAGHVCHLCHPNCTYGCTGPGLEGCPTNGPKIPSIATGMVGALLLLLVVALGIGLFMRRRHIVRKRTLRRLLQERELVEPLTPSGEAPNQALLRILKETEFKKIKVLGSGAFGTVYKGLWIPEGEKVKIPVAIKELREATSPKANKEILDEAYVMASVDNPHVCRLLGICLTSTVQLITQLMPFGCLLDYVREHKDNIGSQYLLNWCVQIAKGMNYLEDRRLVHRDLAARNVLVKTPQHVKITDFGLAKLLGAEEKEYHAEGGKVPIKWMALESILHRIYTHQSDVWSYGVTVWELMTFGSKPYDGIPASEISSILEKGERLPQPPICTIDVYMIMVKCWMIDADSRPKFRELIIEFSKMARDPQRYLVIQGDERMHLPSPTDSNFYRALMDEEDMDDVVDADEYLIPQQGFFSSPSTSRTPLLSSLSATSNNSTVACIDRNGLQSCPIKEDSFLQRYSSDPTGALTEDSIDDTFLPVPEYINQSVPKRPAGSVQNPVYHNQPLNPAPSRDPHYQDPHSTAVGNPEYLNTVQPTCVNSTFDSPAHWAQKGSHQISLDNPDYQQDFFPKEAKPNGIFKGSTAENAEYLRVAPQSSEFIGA

Cc1c(C(=O)NO)sc2ncnc(Nc3cccc4[nH]cnc34)c12 [Compound 15a, 4-(1H-benzo[d]imidazol-4-ylamino)-N-hydroxy-5-methylthieno[2,3-d]pyrimidine-6-carboxamide]
Growth Percent (T-47D): 108.3% and 108.35%
Growth Percent (MOLT-4): 104% and 104.07%
Growth Percent (HOP-92): 118.2% and 118.26%
Growth Percent (HS 578T): 106.4% and 106.47%
Growth Percent (SR): 106% and 106.56%
Growth Percent (UACC-62): 94.2% and 94.26%
Growth Percent (SF-295): 103.7%
Growth Percent (MALME-3M): 109.7% and 109.71%
Growth Percent (SN12C): 102.0% and 102.01%
Growth Percent (MDA-MB-435): 101.5% and 101.54%
Growth Percent (A549/ATCC): 99.5% and 99.51%
Growth Percent (OVCAR-8): 103.6% and 103.64%
% Inhibition Hela Nuclear Extracts (Hela nuclear extracts): 3%
inhibition at 10 µM (EGFR; 10 µM single dose): 45%

Cc1c(C(=O)NO)sc2ncnc(Nc3ccccc3)c12 [Compound 15b, N-hydroxy-5-methyl-4-(phenylamino)thieno[2,3-d]pyrimidine-6-carboxamide]
Growth Percent (T-47D): 90.8% and 90.83%
Growth Percent (MOLT-4): 103.5%
Growth Percent (HOP-92): 99.8% and 99.83%
Growth Percent (HS 578T): 104.7% and 104.75%
Growth Percent (SR): 78.2%
Growth Percent (UACC-62): 92.5% and 92.58%
Growth Percent (SF-295): 91.9% and 91.96%
Growth Percent (MALME-3M): 101.18%
Growth Percent (SN12C): 92.8% and 92.82%
Growth Percent (MDA-MB-435): 98.5% and 98.58%
Growth Percent (A549/ATCC): 98.3% and 98.37%
Growth Percent (OVCAR-8): 104.4% and 104.46%
% Inhibition Hela Nuclear Extracts (Hela nuclear extracts): 9%
inhibition at 10 µM (EGFR; 10 µM single dose): 98%

Cc1c(C(=O)NO)sc2ncnc(Nc3ccc(Cl)cc3)c12 [Compound 15c, 4–(4-chlorophenylamino)-N-hydroxy-5-methylthieno[2,3-d]pyrimidine-6-carboxamide]
Growth Percent (T-47D): 90.6% and 90.65%
Growth Percent (MOLT-4): 102.3% and 102.36%
Growth Percent (HOP-92): 101.5% and 101.51%
Growth Percent (HS 578T): 102.5% and 102.54%
Growth Percent (SR): 102.7% and 102.79%
Growth Percent (UACC-62): 92.4% and 92.45%
Growth Percent (SF-295): 102.7% and 102.79%
Growth Percent (MALME-3M): 102.3% and 102.31%
Growth Percent (SN12C): 98.6% and 98.63%
Growth Percent (MDA-MB-435): 102.4% and 102.42%
Growth Percent (A549/ATCC): 105.8% and 105.88%
Growth Percent (OVCAR-8): 102.0% and 102.02%
% Inhibition Hela Nuclear Extracts (Hela nuclear extracts): 4%
inhibition at 0.0001 µM (EGFR): 0%
inhibition at 0.001 µM (EGFR): 5%
inhibition at 0.01 µM (EGFR): 34%
inhibition at 0.1 µM (EGFR): 81%
inhibition at 1 µM (EGFR): 95%
Mean % inhibition EGFR (EGFR; 10 µM single dose): 97%
IC50 (EGFR): 19 nM

Cc1c(C(=O)NO)sc2ncnc(Nc3ccc(F)c(Cl)c3)c12 [Compound 15d, 4–(3-chloro-4-fluorophenylamino)-N-hydroxy-5-methylthieno[2,3-d]pyrimidine-6-carboxamide]
Growth Percent (T-47D): 95.4% and 95.46%
Growth Percent (MOLT-4): 110.0% and 110.03%
Growth Percent (HOP-92): 120.5% and 120.52%
Growth Percent (HS 578T): 102.4% and 102.42%
Growth Percent (SR): 101.4% and 101.45%
Growth Percent (UACC-62): 88.5% and 88.53%
Growth Percent (SF-295): 93.7% and 93.74%
Growth Percent (MALME-3M): 116.1% and 116.15%
Growth Percent (SN12C): 100.1% and 100.14%
Growth Percent (MDA-MB-435): 101.0% and 101.03%
Growth Percent (A549/ATCC): 100.7% and 100.72%
Growth Percent (OVCAR-8): 105.0% and 105.01%
% Inhibition Hela Nuclear Extracts (Hela nuclear extracts): 4%
inhibition at 10 µM (EGFR; 10 µM single dose): 97%

Cc1c(C(=O)NCCC(=O)NO)sc2ncnc(Nc3ccccc3)c12 [Compound 19b, N-(3-(hydroxyamino)-3-oxopropyl)-5-methyl-4-(phenylamino)thieno[2,3-d]pyrimidine-6-carboxamide]
Growth Percent (T-47D): 101.18%
Growth Percent (MOLT-4): 107.4% and 107.47%
Growth Percent (HOP-92): 102.5%
Growth Percent (HS 578T): 103.8% and 103.85%
Growth Percent (SR): 104.5% and 104.58%
Growth Percent (UACC-62): 95.6% and 95.69%
Growth Percent (SF-295): 91.8% and 91.88%
Growth Percent (MALME-3M): 102.5% and 102.54%
Growth Percent (SN12C): 98.5% and 98.51%
Growth Percent (MDA-MB-435): 102.9% and 102.98%
Growth Percent (A549/ATCC): 98.3%
Growth Percent (OVCAR-8): 99.4% and 99.45%
% Inhibition Hela Nuclear Extracts (Hela nuclear extracts): 5%
inhibition at 10 µM (EGFR; 10 µM single dose): 76%

Cc1c(C(=O)NCCC(=O)NO)sc2ncnc(Nc3ccc(Cl)cc3)c12 [Compound 19c, 4–(4-chlorophenylamino)-N-(3-(hydroxyamino)-3-oxopropyl)-5-methylthieno[2,3-d]pyrimidine-6-carboxamide]
Growth Percent (T-47D): 106.95%
Growth Percent (MOLT-4): 108.6% and 108.67%
Growth Percent (HOP-92): 124.7% and 124.71%
Growth Percent (HS 578T): 105.8% and 105.84%
Growth Percent (SR): 101.3% and 101.35%
Growth Percent (UACC-62): 101.7% and 101.73%
Growth Percent (SF-295): 99.7% and 99.97%
Growth Percent (MALME-3M): 104.5% and 104.57%
Growth Percent (SN12C): 101.7% and 101.77%
Growth Percent (MDA-MB-435): 102.9% and 102.91%
Growth Percent (A549/ATCC): 107.5% and 107.54%
Growth Percent (OVCAR-8): 104.1% and 104.13%
% Inhibition Hela Nuclear Extracts (Hela nuclear extracts): 7%
inhibition at 10 µM (EGFR; 10 µM single dose): 78%

Cc1c(C(=O)NCCC(=O)NO)sc2ncnc(Nc3ccc(F)c(Cl)c3)c12 [Compound 19d, 4–(3-chloro-4-fluorophenylamino)-N-(3-(hydroxyamino)-3-oxopropyl)-5-methylthieno[2,3-d]pyrimidine-6-carboxamide]
Growth Percent (T-47D): 106.5% and 106.56%
Growth Percent (MOLT-4): 115.3% and 115.32%
Growth Percent (HOP-92): 117.7% and 117.77%
Growth Percent (HS 578T): 103.1% and 103.12%
Growth Percent (SR): 110.82%
Growth Percent (UACC-62): 102.3% and 102.36%
Growth Percent (SF-295): 96.0% and 96.07%
Growth Percent (MALME-3M): 112.6% and 112.63%
Growth Percent (SN12C): 102.7% and 102.77%
Growth Percent (MDA-MB-435): 101.8% and 101.82%
Growth Percent (A549/ATCC): 104.3% and 104.35%
Growth Percent (OVCAR-8): 101.3% and 101.35%
% Inhibition Hela Nuclear Extracts (Hela nuclear extracts): 2%
inhibition at 10 µM (EGFR; 10 µM single dose): 96%

Cc1c(C(=O)NCCCC(=O)NO)sc2ncnc(Nc3ccccc3)c12 [Compound 20b, N-(4-(hydroxyamino)-4-oxobutyl)-5-methyl-4-(phenylamino)thieno[2,3-d]pyrimidine-6-carboxamide]
Growth Percent (T-47D): 104.4% and 104.47%
Growth Percent (MOLT-4): 109.4% and 109.45%
Growth Percent (HOP-92): 110.5% and 110.53%
Growth Percent (HS 578T): 102.2% and 102.24%
Growth Percent (SR): 99.2% and 99.22%
Growth Percent (UACC-62): 96.8% and 96.85%
Growth Percent (SF-295): 90.6% and 90.64%
Growth Percent (MALME-3M): 111.9% and 111.93%
Growth Percent (SN12C): 100.3% and 100.34%
Growth Percent (MDA-MB-435): 103.3% and 103.32%
Growth Percent (A549/ATCC): 98.8% and 98.87%
Growth Percent (OVCAR-8): 98.7%
% Inhibition Hela Nuclear Extracts (Hela nuclear extracts): 21%
inhibition at 0.0001 µM (EGFR): 2%
inhibition at 0.001 µM (EGFR): 1%
inhibition at 0.01 µM (EGFR): 7%
inhibition at 0.1 µM (EGFR): 35%
inhibition at 1 µM (EGFR): 85%
inhibition at 10 µM (EGFR; 10 µM single dose): 92%
IC50 (EGFR): 155 nM
